Results from ChEMBL document CHEMBL1201862, “PubChem BioAssay data set” (2004).
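Interpolation was linear, between the two tested concentrations surrounding the appropriate level; five concentrations were tested over 48 hours in 96-well plates. GI50 marks 50% less growth.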 Activity calls are given as the source filed them. Cut-off read from the data, not from the text of the source: active = GI50 up to about 1.1 µM and inactive = higher.

Legend:
Assay in all cases: inhibition of tumour cell growth, NCI panel, 48 h
CAKI-1 = system: CAKI-1
CCRF-CEM = system: CCRF-CEM
EKVX = system: EKVX
HCT-116 = system: HCT-116
HCT-15 = system: HCT-15
HOP-62 = system: HOP-62
HOP-92 = system: HOP-92
Malme-3M = system: Malme-3M
NCI-H460 = system: NCI-H460
OVCAR-3 = system: OVCAR-3
OVCAR-5 = system: OVCAR-5
OVCAR-8 = system: OVCAR-8
PC-3 = system: PC-3
SF-268 = system: SF-268
SF-539 = system: SF-539
SK-MEL-5 = system: SK-MEL-5
SNB-75 = system: SNB-75
UACC-62 = system: UACC-62
SK-MEL-2 = system: SK-MEL-2
LOX IMVI = system: LOX IMVI

Question: What does the source list for `CC(=O)c1ccc(N2CCN(C3=C(Cl)C(=O)c4c(O)ccc(O)c4C3=O)CC2)cc1`?
Answer: GI50 (CAKI-1): 4.89 µM (inactive); GI50 (CCRF-CEM): 0.417 µM (active); GI50 (EKVX): 18.7 µM (inactive); GI50 (HCT-116): 3.5 µM (inactive); GI50 (HCT-15): 8.79 µM; GI50 (HOP-62): 8.95 µM (inactive); GI50 (HOP-92): 2.11 µM (inactive); GI50 (Malme-3M): 11.4 µM (inactive); GI50 (NCI-H460): 16.8 µM (inactive); GI50 (OVCAR-3): 5.19 µM (inactive); GI50 (OVCAR-5): 18.9 µM (inactive); GI50 (OVCAR-8): 3.86 µM (inactive); GI50 (PC-3): 5.64 µM (inactive); GI50 (SF-268): 3.1 µM (inactive); GI50 (SF-539): 13.8 µM (inactive); GI50 (SK-MEL-5): 5.73 µM (inactive); GI50 (SNB-75): 12.7 µM (inactive); GI50 (UACC-62): 2.74 µM (inactive)

Question: For `N=C(N)NS(=O)(=O)c1ccc(/N=N/c2c(O)c(C(=O)O)cc3ccccc23)cc1`, which GI50 (CAKI-1) is on record?
Answer: > 100 µM (inactive)

Question: And the GI50 (CCRF-CEM)?
Answer: > 100 µM (inactive)

Question: What about the GI50 (EKVX) of the same molecule?
Answer: > 100 µM (inactive)

Question: What about the GI50 (HCT-116) of the same molecule?
Answer: > 100 µM (inactive)

Question: What about the GI50 (HCT-15) of the same molecule?
Answer: > 100 µM

Question: What about the GI50 (HOP-62) of the same molecule?
Answer: > 100 µM (inactive)

Question: What about the GI50 (HOP-92) of the same molecule?
Answer: > 100 µM (inactive)

Question: And the GI50 (Malme-3M)?
Answer: > 100 µM (inactive)

Question: And the GI50 (NCI-H460)?
Answer: > 100 µM (inactive)

Question: What about the GI50 (OVCAR-3) of the same molecule?
Answer: > 100 µM (inactive)

Question: And the GI50 (OVCAR-5)?
Answer: > 100 µM (inactive)

Question: And the GI50 (OVCAR-8)?
Answer: > 100 µM (inactive)

Question: And the GI50 (PC-3)?
Answer: > 100 µM (inactive)

Question: And the GI50 (SF-268)?
Answer: > 100 µM (inactive)

Question: And the GI50 (SF-539)?
Answer: > 100 µM (inactive)

Question: And the GI50 (SK-MEL-2)?
Answer: > 100 µM (inactive)

Question: And the GI50 (SK-MEL-5)?
Answer: > 100 µM (inactive)

Question: And the GI50 (SNB-75)?
Answer: > 100 µM (inactive)

Question: What about the GI50 (UACC-62) of the same molecule?
Answer: > 100 µM (inactive)

Question: Which results are given for `O=C1/C(=C\c2ccco2)Oc2ccccc21`?
Answer: GI50 (CAKI-1): > 100 µM (inactive); GI50 (CCRF-CEM): > 100 µM (inactive); GI50 (EKVX): 42.9 µM (inactive); GI50 (HCT-116): > 100 µM (inactive); GI50 (HCT-15): > 100 µM; GI50 (HOP-62): > 100 µM (inactive); GI50 (HOP-92): > 100 µM (inactive); GI50 (LOX IMVI): > 100 µM (inactive); GI50 (NCI-H460): > 100 µM (inactive); GI50 (OVCAR-3): 98.9 µM (inactive); GI50 (OVCAR-5): > 100 µM (inactive); GI50 (OVCAR-8): > 100 µM (inactive); GI50 (PC-3): > 100 µM (inactive); GI50 (SF-268): > 100 µM (inactive); GI50 (SK-MEL-2): > 100 µM (inactive); GI50 (SK-MEL-5): > 100 µM (inactive); GI50 (SNB-75): > 100 µM (inactive); GI50 (UACC-62): > 100 µM (inactive)

Question: Which results are given for `CCN(CC)c1c(-c2c(OC(C)C)c(=O)c2=O)c(=O)n2ccsc2c1OC(C)=O`?
Answer: GI50 (CAKI-1): > 100 µM (inactive); GI50 (CCRF-CEM): > 100 µM (inactive); GI50 (EKVX): 71.9 µM (inactive); GI50 (HCT-116): > 100 µM (inactive); GI50 (HCT-15): > 100 µM; GI50 (HOP-62): > 100 µM (inactive); GI50 (HOP-92): > 100 µM (inactive); GI50 (LOX IMVI): > 100 µM (inactive); GI50 (Malme-3M): 39.7 µM (inactive); GI50 (NCI-H460): > 100 µM (inactive); GI50 (OVCAR-3): > 100 µM (inactive); GI50 (OVCAR-5): > 100 µM (inactive); GI50 (OVCAR-8): > 100 µM (inactive); GI50 (PC-3): > 100 µM (inactive); GI50 (SF-268): > 100 µM (inactive); GI50 (SK-MEL-2): > 100 µM (inactive); GI50 (SK-MEL-5): > 100 µM (inactive); GI50 (SNB-75): 5.13 µM (inactive); GI50 (UACC-62): > 100 µM (inactive)
